Test system: Rat Hydrochloric Acid-induced Cystitis Model
Test: Evaluation in a rat hydrochloric acid-induced cystitis model (cystometry)
Format: in vivo
Experimental: On day 1, Crlj:CD(SD) male rats at 8 weeks of age were anesthetized by 2% isofurane inhalation and the abdomen of the rats were opened. After cannula was inserted into the bladder and fixed, the incision was closed with suture. On day 2, 0.2 N hydrochloric acid was injected into the bladder through cannula for 15 min to induce cystitis. On day 3, the first oral administration of a drug was performed. Since then, the drug was administrated once a day continuously for 7 days. As a retinoid drug, 3 mg/kg tamibarotene (Am80, 4-[(5,6,7,8-tetrahydro-5,5,8,8-tetramethyl-2-naphthalenyl)-carbamoyl] benzoic acid) suspended in 0.5% carboxymethylcellulose was orally administered. For the control group, 0.5% carboxymethylcellulose was orally administered. On day 10, bladder function under unanesthetized and unrestrained state was evaluated by cystometry. Via a three-way stopcock, warm saline (37° C.) was infused into the tube which was inserted into the bladder. At the other end of a three-way stopcock, bladder pressure was measured for 60 min by a pressure amplifier through a pressure transducer. At the same time, the weight change of excreted urine was measured using a balance. From these measured data, basal bladder pressure, maximum bladder pressure, micturition interval, and micturition volume were calculated. 5 rats were used in each group, control and tamibarotene group.
Values were indicated as average ±standard error. The difference between averages of control group and tamibarotene group was evaluated by Student's t-test (***p<0.001 compared with control).

[1] = 3 mg/kg oral once a day for 7 days, cystometry on day 10, unanesthetized unrestrained rats, average ± standard error

SMILES: CC1(C)CCC(C)(C)c2cc(NC(=O)c3ccc(C(=O)O)cc3)ccc21 [Tamibarotene, 4-[(5,6,7,8-tetrahydro-5,5,8,8-tetramethyl-2-naphthalenyl)-carbamoyl] benzoic acid]
- Basal bladder pressure [1]: 15.1 ± 2.8 mmHg
- Maximum bladder pressure [1]: 36.6 ± 6.0 mmHg
- Micturition volume (3 mg/kg oral once a day for 7 days, cystometry on day 10, average ± standard error): 0.61 ± 0.24 g
- Micturition interval (3 mg/kg oral once a day for 7 days, cystometry on day 10, average ± standard error, ***p<0.001 compared with control): 884 ± 113*** second
- Micturition interval compared to control group (in words) (3 mg/kg tamibarotene-administered group vs control, Student's t-test): significantly improved

Reference: US7902260B2, “Medicament for preventive and/or therapeutic treatment of lower urinary tract symptom” (Kemphys Ltd., priority 2007, dated 2011)
